# Experimental data from patent US8569501B2, “Semiconductor materials and methods of preparation and use thereof” (BASF SE, priority 2008, dated 2013).
# Test: Solubility in organic solvents
# Assay type: physicochemical
# Settings: in dichlorobenzene at 60° C.
# Source text: All of the mono-bromo mono-cyano perylenes and dimeric perylenes are sufficiently soluble for processing in conventional organic solvents such as chloroform, xylene, dichlorobenzene, and anisole.
row,Solubility [mg/mL],SMILES
1,33.9,"CCCCC(C)N1C(=O)c2ccc3c4c(-c5ccc(-c6ccc(-c7cc8c9c(ccc%10c%11c(C#N)cc%12c%13c(ccc(c7c9%10)c%13%11)C(=O)N(C(C)CCCC)C%12=O)C(=O)N(C(C)CCCC)C8=O)s6)s5)cc5c6c(ccc(c7c(C#N)cc(c2c37)C1=O)c64)C(=O)N(C(C)CCCC)C5=O (stereo not drawn) [BPDI(1MP)-BT, 5,5′-bis-[N,N′-bis(1-methylpentyl)-1-cyanoperylene-3,4:9,10-bis(dicarboxiimide)-7-yl]-2,2′-bithiophene]"
2,5.5,"CCCCC(CC)CN1C(=O)c2ccc3c4c(-c5ccc(-c6ccc(-c7cc8c9c(ccc%10c%11c(C#N)cc%12c%13c(ccc(c7c9%10)c%13%11)C(=O)N(CC(CC)CCCC)C%12=O)C(=O)N(CC(CC)CCCC)C8=O)s6)s5)cc5c6c(ccc(c7c(C#N)cc(c2c37)C1=O)c64)C(=O)N(CC(CC)CCCC)C5=O (stereo not drawn) [BPDI(2EH)-BT, 5,5′-bis-[N,N′-bis(2-ethylhexyl)-1-cyanoperylene-3,4:9,10-bis(dicarboxiimide)-7-yl]-2,2′-bithiophene]"
3,7.8,"CCCCCCCCN1C(=O)c2ccc3c4c(-c5ccc(-c6ccc(-c7cc8c9c(ccc%10c%11c(C#N)cc%12c%13c(ccc(c7c9%10)c%13%11)C(=O)N(CCCCCCCC)C%12=O)C(=O)N(CCCCCCCC)C8=O)s6)s5)cc5c6c(ccc(c7c(C#N)cc(c2c37)C1=O)c64)C(=O)N(CCCCCCCC)C5=O [BPDI(8)-BT, 5,5′-bis-[N,N′-bisoctyl-1-cyanoperylene-3,4:9,10-bis(dicarboxiimide)-7-yl]-2,2′-bithiophene]"
